Broadly, the solubility is how much of the substance goes into solution per volume.

The results in this text go back to patent US20200253877A1, “GEMCABENE, PHARMACEUTICALLY ACCEPTABLE SALTS THEREOF, COMPOSITIONS THEREOF AND METHODS OF USE THEREFOR” (NEUROBO PHARMACEUTICALS, INC., priority 2018, published 2020).

Series [1] in a line: Solubility of gemcabene calcium salt hydrate Crystal Form 1 by solvent addition method. Type of series: physicochemical. The note with it: thermodynamic from solid. How it is done:
Approximately 20 mg of gemcabene calcium Crystal Form 1 was added to 5×2 mL vials. The solubility in 5 solvents was tested using a solvent addition method. Solvents included acetone, ethanol, ethyl acetate, t-butyl methyl ether (t-BME) and water. Solvent was added in 5 volume (100 μL) aliquots until either dissolution or 2 mL in total had been added. Between each addition, samples were heated to 60° C. (40° C. for acetone and t-BME). Any solids remaining after 24 hours at ambient were analyzed by X-ray powder diffraction (XRPD).

The test system of series [2] is patients with familial hypercholesterolemia (FH). In words: Open-label escalating-dose study (300, 600, 900 mg) in familial hypercholesterolemia patients on stable lipid-lowering therapy: LDL-C. Type of series: in vivo, human. The note with it: Patient 1. The procedure: A study was performed to evaluate the efficacy of film-coated Tablet D in treating patients with familial hypercholesterolemia (FH) and who are on stable, lipid-lowering therapy. Male and female patients ≥17 years of age who had been diagnosed with FH by genetic confirmation or a clinical diagnosis based on either (1) a history of an untreated LDL-C concentration ≥500 mg/dl (12.92 mmol/L) together with either appearance of xanthoma before 10 years of age, or evidence of familial hypercholesterolemia in both parents or (2) LDL-C >300 mg/dl (7.76 mmol/L) on maximally tolerated lipid-lowering drug therapy were enrolled in the study.
The study was a 3-period, 3-treatment study using successively escalating doses of 300 mg, 600 mg, and 900 mg gemcabene calcium salt hydrate Crystal Form 1 (PSD90=52 μm). All patients were on each of the successive doses for 4 weeks at a time. Patients remained on their stable, lipid-lowering therapy throughout the study.
Each patient received one 300 mg gemcabene calcium salt hydrate Crystal Form 1 tablet (film-coated Tablet D) orally QD (alternatively written as q.d.; meaning “once a day”) for 4 weeks. The same patients then received 600 mg gemcabene calcium salt hydrate Crystal Form 1 orally QD for 4 weeks. The 600 mg dose consisted of two 300-mg tablets (film-coated Tablet D×2). […]
LDL-C values were measured after the patient had been administered film-coated Tablet D for 2 weeks for each dosing level and on the last day of each dose. For each escalated dose, percent change from baseline in LDL-C was calculated using the baseline LDL-C value and the final LDL-C value measured for each dose. […]
This was an open-label, dose-finding, 3-period, 3-treatment study using successively escalating doses of 300 mg, 600 mg, and 900 mg gemcabene calcium salt hydrate Crystal Form 1 having PSD90 of 52 μm in patients clinically diagnosed with familial hypercholesterolemia (FH). […] Plasma from these samples were analyzed for gemcabene concentrations and the data used for PK analysis. […]

Series [3] can be described thus: Effect of steady-state gemcabene 600 mg on single-dose pharmacokinetics of ON 1/35 (ethinyl estradiol/norethindrone) in healthy female subjects. The format is in vivo, human. The note with it: 600 mg daily at steady state; single dose ON 1/35. How it is done: An open-label, two-sequence, cross-over study to assess the steady-state effects of gemcabene calcium on the single-dose pharmacokinetics (PK) of oral contraceptive tablets in healthy female subjects was conducted with 300 mg tablets containing gemcabene calcium salt hydrate Crystal Form 1 having PSD90 of 52 μm (film-coated Tablet F).
The population for this study was generally healthy, adult female subjects of childbearing potential (≥18 to ≤35 years of age). This population supports the overall objective of the study to evaluate the effect of 600 mg of gemcabene calcium salt hydrate Crystal Form 1 having PSD90 of 52 μm at steady-state on the PK of a single dose of ON 1/35 (Ortho Novum 1/35; combined ethinyl estradiol/norethindrone oral contraceptive). The primary objective of this study was to assess the effect of daily 600 mg of gemcabene calcium salt hydrate Crystal Form 1 having PSD90 of 52 μm at steady-state on the pharmacokinetics (PK) of ON 1/35. The secondary objectives of this study were to assess the safety and tolerability of daily gemcabene 600 mg in combination with a single-dose ON 1/35 and to assess the steady-state PK of 600 mg of gemcabene calcium salt hydrate Crystal Form 1 having PSD90 of 52 μm (film-coated Tablet F×2). […]

The structures appear in SMILES notation.

`CC(C)(CCCCOCCCCC(C)(C)C(=O)O)C(=O)O.[Ca]` [6-(5-Carboxy-5-methyl-hexyloxy)-2,2-dimethylhexanoic acid calcium]: the solubility in series [1] (organic solvent or mixture, Acetone, heated to 40° C. between additions) was less than 10000 µg/mL; in series [1] (organic solvent or mixture, Ethanol, heated to 60° C. between additions), less than 10000 µg/mL; in series [1] (organic solvent or mixture, Ethyl Acetate, heated to 60° C. between additions) it was less than 10000 µg/mL; in series [1] (organic solvent or mixture, t-Butyl Methyl Ether (t-BME), heated to 40° C. between additions), less than 10000 µg/mL; in series [1] (Water, heated to 60° C. between additions) it was 33000 µg/mL. Also, the “LDL-C reduction compared to baseline” value in series [2] (300 mg oral QD, 4 weeks) is listed as 55.2%; in series [2] (600 mg oral QD, 8 weeks), 49.8%; in series [2] (900 mg oral QD, 12 weeks) it was 54.5%. In addition, in series [3], the “drug-drug interaction with ethinyl estradiol and norethindrone” value is given as “mild drug-drug interaction”.
